Measured values published in patent publication US4297353A, “Non-irritating injectable dosage forms” (priority 1980, dated 1981).
Like-named read-outs stand apart in the source and are kept apart here.

Experiments:
[1] = test system: muscles of rabbits (sacrospinales group); test: Intramuscular tissue irritation in rabbits, microscopic observations (Example 2)
[2] = test system: muscles of rabbits (sacrospinales group); conditions: rabbit, in vivo

Row | SMILES | evidence of suppuration in the inflammatory zone ([1]; Day 4 post-injection, regardless of concentration) | evidence of connective tissue irritation ([1]; Day 7 and Day 14) | evidence of connective tissue irritation [2]
1 | CSc1ccc2c(c1)N(CCC1CCCCN1C)c1ccccc1S2 (stereo not drawn) [Mellaril base, thioridazine] | high-frequency evidence of suppuration | became apparent by Day 7 and more frequent and extreme in its occurrence by Day 14 | –
2 | CN(C)CCCN1c2ccccc2Sc2ccc(Cl)cc21 [chloropromazine, Chlorpromazine] | – | – | became apparent by Day 7 and more frequent and extreme in its occurrence by Day 14
